# Source: patent US20130029981A1, “COMPOUNDS, COMPOSITIONS, AND METHODS FOR CONTROLLING BIOFILMS” (Katholieke Universiteit Leuven, priority 2009, published 2013)
# Assays:
# S. Typhimurium ATCC14028 = assay: Bioscreen assay: influence on planktonic growth curve; format: cell-based, Salmonella Typhimurium; design: key: x: no influence on the planktonic growth at the IC50 for biofilm inhibition; ∘: planktonic growth is retarded at the IC50 for biofilm inhibition; conditions: planktonic growth at the IC50 for biofilm inhibition, 25° C.
# Source text: (§1) Some of the tested compounds show a concentration range in which biofilm formation is inhibited but no effect on planktonic growth is observed. These compounds are particularly interesting for prevention of biofilm formation since the development of resistance against these compounds is less likely. Table 8 indicates whether the different compounds have an effect on the planktonic growth of the bacteria at the IC50 for biofilm inhibition. To construct Table 8, the effect of the tested compounds on the growth curve of the bacteria was determined at a concentration equal to the IC50 for biofilm inhibition, by using the Bioscreen system available from Oy Growth Curves Ab Ltd). The Bioscreen device from Oy Growth Curves Ab Ltd was used for measuring the influence of the chemical compounds on the planktonic growth of Salmonella Typhimurium and Pseudomonas aeruginosa. The Bioscreen is a computer controlled incubator/reader/shaker that uses 10×10 well microtiter plates and measures light absorbance of each well at a specified wave length in function of time. An overnight culture of S. […] The broth used was TSB 1/20 for the experiments at 16° C. and 25° C. For experiments at 37° C. CFA medium was used for S. […] As a control 3 μl of the appropriate solvent (DMSO or EtOH) was also added to the plate in 3- or 4-fold. The microtiter plate was incubated in the Bioscreen device at 16° C., 25° C. or 37° C. for at least 36 hours, with continious medium shaking. The absorbance of each well was measured at 600 nm each 15 minutes. Excel was used to generate the growth curves for treated the treated wells and the untreated control wells. Some of the compounds show a concentration range in which biofilm formation is inhibited but no effect on the planktonic growth is observed. Table 14 indicates if the different compounds have an effect on the planktonic growth of the bacteria at the IC50 for biofilm inhibition. To construct this table the effect of the compounds on the growth curve of the bacteria was determined at a concentration equal to the IC50 for biofilm inhibtion, by using the Bioscreen system from Oy Growth Curves Ab Ltd.
# [1] = system: Pseudomonas aeruginosa PA14; assay: as above; format: cell-based; design: key: x: no influence on the planktonic growth at the IC50 for biofilm inhibition; ∘: planktonic growth is retarded at the IC50 for biofilm inhibition; conditions: planktonic growth at the IC50 for biofilm inhibition, 25° C.
# Source text: as §1, with “Table 14 indicates if the different compounds have an effect on the planktonic growth of the bacteria at the IC50 for biofilm inhibition.” left out
# [2] = system: Pseudomonas aeruginosa PA14; assay: Antibacterial activity: growth inhibition, OD600 after 24 h (GIC50); format: cell-based; conditions: 25° C.
# Description: Starting from a 40 mM stock solution of each compound in DMSO, two-fold serial dilutions in 100 μl liquid broth per well were prepared in dublicate in sterile transparant microtiter plates. The broth used was TSB 1/20 for measurements at 25° C. and CFA (in case of Salmonella Typhimurium) and LBNS (in case of Pseudomonas aeruginosa) for measurements at 37° C. Subsequently an overnight culture of the bacteria (S. Typhimurium ATCC14028 or P. aeruginosa PA14) was diluted 1/200 into the corresponding liquid broth and 100 μl was added to each well of the microtiterplate resulting in a total amout of 200 μl medium per well. After an incubation of 24 hours the optical density at 600 nm of each well was determined with a microtiter plate reader (VERSAmax, Molecular Devices).
# Evaluation of antibacterial-inhibitory activity of some substituted imidazo[1,2-a]pyrimidinium bromide salts of the invention was carried out by diluting an overnight culture of Salmonella Typhimurium ATCC14028 or Pseudomonas aeruginosa PA141/200 into liquid medium. 200 μl of the diluted overnight culture was added to each well of a microtiterplate together with different concentrations of the test compound (1/2 dilution series of the compound). After an incubation of 24 hours the optical density at 600 nm of each well was determined with a microtiter plate reader. […] The GIC50 values of representative compounds for antibacterial activity are shown in the following Tables 9 and 10 (wherein Ph stands for phenyl, Me for methyl): […]
Structure (SMILES),IC50 [2],"IC50 ([2]; Pseudomonas aeruginosa, PA14)",Influence on growth (S. Typhimurium ATCC14028),Influence on growth [1]
CCCCCCN1c2nccc[n+]2CC1(O)c1ccc([N+](=O)[O-])cc1.[Br-] (centres unmarked) [Compound 34],,,x,
OC1(c2ccc(Cl)cc2)C[n+]2cccnc2N1C1CCCCC1.[Br-] (centres unmarked) [Compound 64],61.3 µM,,x,x
OC1(c2ccc(I)cc2)C[n+]2cccnc2N1Cc1ccccc1.[Br-] (centres unmarked) [Compound 73],51.7 µM,,x,x

# The next lines start with results.
IC50 [2],"IC50 ([2]; Pseudomonas aeruginosa, PA14)",Structure (SMILES),Influence on growth (S. Typhimurium ATCC14028),Influence on growth [1]
8.89 µM,,O=[N+]([O-])c1ccc(C2(O)C[n+]3cccnc3N2C2CCCCCCCCCCC2)cc1.[Br-] (centres unmarked) [Compound 69],,
,27.1 µM,"OC1(c2ccc(-c3ccccc3)cc2)C[n+]2cccnc2N1C1CCCC1.[Br-] (centres unmarked) [R1=Cyclopentyl, R3=4-biphenylyl, R4=H, 1-cyclopentyl-2-hydroxy-2-(4-biphenylyl)-2,3-dihydro-1H-imidazo[1,2-a]pyrimidin-4-ium bromide]",x,x
